Laboratory results reported in US8574563B2 (Bristol-Myers Squibb Company, priority 2006, dated 2013).
pEC50: −log10 of the molar value. Where two headings read alike, the source gives them in different places.

Tested on: HCV 1b-377-neo replicon cells
Test: HCV replicon assay, HCV 1b-377-neo replicon cells (1b FRET)
Format: cell-based, Hepatitis C virus genotype 1b
Conditions: HCV 1b-377-neo replicon cells, HCV 1b genotype; for pEC50: read-out: EC50 range against HCV 1b (Table 2, Range)
Method in brief: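 Compounds were tested in genotype 1b subgenomic replicon cells carrying a neomycin marker, alongside a matched replicon line with an NS5A Y2065H substitution that confers resistance to a reference NS5A inhibitor.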

Compound | pEC50 (Hepatitis C virus) | also measured
CN(C)[C@@H](C(=O)N1CCC[C@H]1c1ncc(-c2ccc(-c3ccc(-c4cnc([C@@H]5CCCN5C(=O)N5CCCC5)[nH]4)cc3)cc2)[nH]1)c1ccccc1 [Example 94, (1R)-N,N-dimethyl-2-oxo-1-phenyl-2-((2S)-2-(5-(4′-(2-((2S)-1-(1-pyrrolidinylcarbonyl)-2-pyrrolidinyl)-1H-imidazol-5-yl)-4-biphenylyl)-1H-imidazol-2-yl)-1-pyrrolidinyl)ethanamine] | 9.00 to 12.00 | –
CN(C)[C@@H](C(=O)N1CCC[C@H]1c1ncc(-c2ccc(-c3ccc(-c4cnc([C@@H]5CCCN5C(=O)[C@@](C)(O)c5ccccc5F)[nH]4)cc3)cc2)[nH]1)c1ccccc1 [Example 94-1, (2S)-1-((2S)-2-(5-(4′-(2-((2S)-1-((2R)-2-(dimethylamino)-2-phenylacetyl)-2-pyrrolidinyl)-1H-imidazol-5-yl)-4-biphenylyl)-1H-imidazol-2-yl)-1-pyrrolidinyl)-2-(2-fluorophenyl)-1-oxo-2-propanol] | 9.00 to 12.00 | –
CN(C)[C@@H](C(=O)N1CCC[C@H]1c1ncc(-c2ccc(-c3ccc(-c4cnc([C@@H]5CCCN5C(=O)[C@H]5CCC(=O)N5)[nH]4)cc3)cc2)[nH]1)c1ccccc1 [Example 94-2, (5R)-5-(((2S)-2-(5-(4′-(2-((2S)-1-((2R)-2-(dimethylamino)-2-phenylacetyl)-2-pyrrolidinyl)-1H-imidazol-5-yl)-4-biphenylyl)-1H-imidazol-2-yl)-1-pyrrolidinyl)carbonyl)-2-pyrrolidinone] | 7.00 to 9.00 | –
CN(C)[C@@H](C(=O)N1CCC[C@H]1c1ncc(-c2ccc(-c3ccc(-c4cnc([C@@H]5CCCN5C(=O)[C@@H](c5ccccc5)N5CCC(C)(O)CC5)[nH]4)cc3)cc2)[nH]1)c1ccccc1 [Example 94-3, 1-((1R)-2-((2S)-2-(5-(4′-(2-((2S)-1-((2R)-2-(dimethylamino)-2-phenylacetyl)-2-pyrrolidinyl)-1H-imidazol-5-yl)-4-biphenylyl)-1H-imidazol-2-yl)-1-pyrrolidinyl)-2-oxo-1-phenylethyl)-4-methyl-4-piperidinol] | 9.00 to 12.00 | –
CN(C)[C@@H](C(=O)N1CCC[C@H]1c1ncc(-c2ccc(-c3ccc(-c4cnc([C@@H]5CCCN5C(=O)CNC(=O)c5ccccc5)[nH]4)cc3)cc2)[nH]1)c1ccccc1 [Example 94-6, N-(2-((2S)-2-(5-(4′-(2-((2S)-1-((2R)-2-(dimethylamino)-2-phenylacetyl)-2-pyrrolidinyl)-1H-imidazol-5-yl)-4-biphenylyl)-1H-imidazol-2-yl)-1-pyrrolidinyl)-2-oxoethyl)benzamide] | – | EC50 range against HCV 1b (Table 2, Range): C-D
CN(C)[C@@H](C(=O)N1CCC[C@H]1c1ncc(-c2ccc(-c3ccc(-c4cnc([C@@H]5CCCN5C(=O)c5ccc(N6CCOCC6)cc5)[nH]4)cc3)cc2)[nH]1)c1ccccc1 [Example 94-9, (1R)-N,N-dimethyl-2-((2S)-2-(5-(4′-(2-((2S)-1-(4-(4-morpholinyl)benzoyl)-2-pyrrolidinyl)-1H-imidazol-5-yl)-4-biphenylyl)-1H-imidazol-2-yl)-1-pyrrolidinyl)-2-oxo-1-phenylthanamine] | – | pEC50: 9.00 to 12.00
CN(C)[C@@H](C(=O)N1CCC[C@H]1c1ncc(-c2ccc(-c3ccc(-c4cnc([C@@H]5CCCN5C(=O)c5snnc5-c5ccccc5)[nH]4)cc3)cc2)[nH]1)c1ccccc1 [Example 94-10, (1R)-N,N-dimethyl-2-oxo-1-phenyl-2-((2S)-2-(5-(4′-(2-((2S)-1-((4-phenyl-1,2,3-thiadiazol-5-yl)carbonyl)-2-pyrrolidinyl)-1H-imidazol-5-yl)-4-biphenylyl)-1H-imidazol-2-yl)-1-pyrrolidinyl)ethanamine] | 9.00 to 12.00 | –
CN(C)[C@@H](C(=O)N1CCC[C@H]1c1ncc(-c2ccc(-c3ccc(-c4cnc([C@@H]5CCCN5C(=O)C5(C)CCN(C(=O)OC(C)(C)C)CC5)[nH]4)cc3)cc2)[nH]1)c1ccccc1 [Example 94-12, tert-butyl 4-(((2S)-2-(5-(4′-(2-((2S)-1-((2R)-2-(dimethylamino)-2-phenylacetyl)-2-pyrrolidinyl)-1H-imidazol-5-yl)-4-biphenylyl)-1H-imidazol-2-yl)-1-pyrrolidinyl)carbonyl)-4-methyl-1-piperidinecarboxylate] | 7.00 to 9.00 | –
CN(C)[C@@H](C(=O)N1CCC[C@H]1c1ncc(-c2ccc(-c3ccc(-c4cnc([C@@H]5CCCN5C(=O)Cc5cccc(O)c5)[nH]4)cc3)cc2)[nH]1)c1ccccc1 [Example 94-13, 3-(2-((2S)-2-(5-(4′-(2-((2S)-1-((2R)-2-(dimethylamino)-2-phenylacetyl)-2-pyrrolidinyl)-1H-imidazol-5-yl)-4-biphenylyl)-1H-imidazol-2-yl)-1-pyrrolidinyl)-2-oxoethyl)phenol] | 9.00 to 12.00 | –
CN(C)[C@@H](C(=O)N1CCC[C@H]1c1ncc(-c2ccc(-c3ccc(-c4cnc([C@@H]5CCCN5C(=O)[C@@H]5CCN(Cc6ccccc6)C5)[nH]4)cc3)cc2)[nH]1)c1ccccc1 [Example 94-17, (1R)-2-((2S)-2-(5-(4′-(2-((2S)-1-(((3R)-1-benzyl-3-pyrrolidinyl)carbonyl)-2-pyrrolidinyl)-1H-imidazol-5-yl)-4-biphenylyl)-1H-imidazol-2-yl)-1-pyrrolidinyl)-N,N-dimethyl-2-oxo-1-phenylethanamine] | 9.00 to 12.00 | –
Cc1cc(CC(=O)N2CCC[C@H]2c2ncc(-c3ccc(-c4ccc(-c5cnc([C@@H]6CCCN6C(=O)[C@@H](c6ccccc6)N(C)C)[nH]5)cc4)cc3)[nH]2)n[nH]1 [Example 94-19, (1R)-N,N-dimethyl-2-((2S)-2-(5-(4′-(2-((2S)-1-((5-methyl-1H-pyrazol-3-yl)acetyl)-2-pyrrolidinyl)-1H-imidazol-5-yl)-4-biphenylyl)-1H-imidazol-2-yl)-1-pyrrolidinyl)-2-oxo-1-phenylethanamine] | 9.00 to 12.00 | –
CN(C)[C@@H](C(=O)N1CCC[C@H]1c1ncc(-c2ccc(-c3ccc(-c4cnc([C@@H]5CCCN5C(=O)[C@H]5CCCCN5C(=O)OC(C)(C)C)[nH]4)cc3)cc2)[nH]1)c1ccccc1 [Example 94-20, tert-butyl (2R)-2-(((2S)-2-(5-(4′-(2-((2S)-1-((2R)-2-(dimethylamino)-2-phenylacetyl)-2-pyrrolidinyl)-1H-imidazol-5-yl)-4-biphenylyl)-1H-imidazol-2-yl)-1-pyrrolidinyl)carbonyl)-1-piperidinecarboxylate] | 7.00 to 9.00 | –
COc1ccccc1OCC(=O)N1CCC[C@H]1c1ncc(-c2ccc(-c3ccc(-c4cnc([C@@H]5CCCN5C(=O)[C@@H](c5ccccc5)N(C)C)[nH]4)cc3)cc2)[nH]1 [Example 94-24, (1R)-2-((2S)-2-(5-(4′-(2-((2S)-1-((2-methoxyphenoxy)acetyl)-2-pyrrolidinyl)-1H-imidazol-5-yl)-4-biphenylyl)-1H-imidazol-2-yl)-1-pyrrolidinyl)-N,N-dimethyl-2-oxo-1-phenylethanamine] | 9.00 to 12.00 | –
CN(C)[C@@H](C(=O)N1CCC[C@H]1c1ncc(-c2ccc(-c3ccc(-c4cnc([C@@H]5CCCN5C(=O)C5CN(C(=O)OC(C)(C)C)C5)[nH]4)cc3)cc2)[nH]1)c1ccccc1 [Example 94-25, tert-butyl 3-(((2S)-2-(5-(4′-(2-((2S)-1-((2R)-2-(dimethylamino)-2-phenylacetyl)-2-pyrrolidinyl)-1H-imidazol-5-yl)-4-biphenylyl)-1H-imidazol-2-yl)-1-pyrrolidinyl)carbonyl)-1-azetidinecarboxylate] | 9.00 to 12.00 | –
CN(C)[C@@H](C(=O)N1CCC[C@H]1c1ncc(-c2ccc(-c3ccc(-c4cnc([C@@H]5CCCN5C(=O)[C@H]5CCN(Cc6ccccc6)C5)[nH]4)cc3)cc2)[nH]1)c1ccccc1 [Example 94-26, (1R)-2-((2S)-2-(5-(4′-(2-((2S)-1-(((3S)-1-benzyl-3-pyrrolidinyl)carbonyl)-2-pyrrolidinyl)-1H-imidazol-5-yl)-4-biphenylyl)-1H-imidazol-2-yl)-1-pyrrolidinyl)-N,N-dimethyl-2-oxo-1-phenylethanamine] | 9.00 to 12.00 | –
CN(C)[C@@H](C(=O)N1CCC[C@H]1c1ncc(-c2ccc(-c3ccc(-c4cnc([C@@H]5CCCN5C(=O)c5cccc(N6CCCC6)c5)[nH]4)cc3)cc2)[nH]1)c1ccccc1 [Example 94-27, (1R)-N,N-dimethyl-2-oxo-1-phenyl-2-((2S)-2-(5-(4′-(2-((2S)-1-(3-(1-pyrrolidinyl)benzoyl)-2-pyrrolidinyl)-1H-imidazol-5-yl)-4-biphenylyl)-1H-imidazol-2-yl)-1-pyrrolidinyl)ethanamine] | 7.00 to 9.00 | –
CN(C)[C@@H](C(=O)N1CCC[C@H]1c1ncc(-c2ccc(-c3ccc(-c4cnc([C@@H]5CCCN5C(=O)C5(C(F)(F)F)CC5)[nH]4)cc3)cc2)[nH]1)c1ccccc1 [Example 94-30, (1R)-N,N-dimethyl-2-oxo-1-phenyl-2-((2S)-2-(5-(4′-(2-((2S)-1-((1-(trifluoromethyl)cyclopropyl)carbonyl)-2-pyrrolidinyl)-1H-imidazol-5-yl)-4-biphenylyl)-1H-imidazol-2-yl)-1-pyrrolidinyl)ethanamine] | 9.00 to 12.00 | –
CN(C)[C@@H](C(=O)N1CCC[C@H]1c1ncc(-c2ccc(-c3ccc(-c4cnc([C@@H]5CCCN5C(=O)c5cccc(C(=O)c6ccccc6)c5)[nH]4)cc3)cc2)[nH]1)c1ccccc1 [Example 94-32, (3-(((2S)-2-(5-(4′-(2-((2S)-1-((2R)-2-(dimethylamino)-2-phenylacetyl)-2-pyrrolidinyl)-1H-imidazol-5-yl)-4-biphenylyl)-1H-imidazol-2-yl)-1-pyrrolidinyl)carbonyl)phenyl)(phenyl)methanone] | 7.00 to 9.00 | –
CN(C)[C@@H](C(=O)N1CCC[C@H]1c1ncc(-c2ccc(-c3ccc(-c4cnc([C@@H]5CCCN5C(=O)[C@H]5CC[C@@H](NC(=O)OC(C)(C)C)CC5)[nH]4)cc3)cc2)[nH]1)c1ccccc1 [Example 94-33, tert-butyl (cis-4-(((2S)-2-(5-(4′-(2-((2S)-1-((2R)-2-(dimethylamino)-2-phenylacetyl)-2-pyrrolidinyl)-1H-imidazol-5-yl)-4-biphenylyl)-1H-imidazol-2-yl)-1-pyrrolidinyl)carbonyl)cyclohexyl)carbamate] | 7.00 to 9.00 | –
